Series [1] relates to NF-κB target genes (CCND2, BCL2A, CCL3, CCL4, RGS1, and TNF) in CLL cells. The conditions noted are these: CLL cells treated in vitro; cited from earlier work.
In series [2] the test system is NF-κB proteins (p50 and RelB) in CLL cells. Particulars: CLL cells treated in vitro; cited from earlier work.
Series [3] deals with NF-κB (p105/p50) nuclear translocation in CD19-positive B (CLL) cells. As to the kind of experiment: NF-κB nuclear translocation in B cells from CLL PBMCs, 30 min anti-IgM. The conditions noted are these: 6 hours compound, anti-IgM 30 minutes. The format is cell-based, human. The protocol: Alternatively, B cells can also be activated by beads coated with anti-IgM antibody. After the stimulation, PBMCs were fixed using CytoFix buffer and permeabilized using 0.1% Triton X-100 solution. Cells were then stained with anti-CD19 to label B (CLL) cells, Hoechst 33342 to label nuclei, and anti-p105/p50 to label NF-κB subunit. Samples were analyzed on ImageStreamX to evaluate NF-κB nuclear localization in the CD19-positive cells. […] Statistical significance was determined using Student's t-test in Microsoft Excel.

Series [4] deals with purified T-cells and PBMCs from NHL patients. As to the kind of experiment: IL2 expression in purified T-cells and PBMCs from NHL patients. The format is cell-based, human. The conditions noted are these: T-cells and PBMC of NHL blood; 24 hours; CD3 and CD28 six hours. The protocol:
The effect of a MALT inhibitor was analyzed utilizing gene expression signatures from purified T-cells and PBMCs from Non-Hodgkin's lymphoma patients. Peripheral blood was collected from five NHL patients, and the peripheral blood was allowed to stand overnight. Then, the peripheral blood was treated for 24 hours with a MALT inhibitor or DMSO control. The blood was then stimulated with monoclonal antibodies against CD3 and CD28 for six hours. Prior to stimulation and following stimulation, PBMC were purified from the treated blood using a ficoll density gradient and T-cells were purified using CD3 Beads (Miltenyi) using the manufacturers protocol. Purified cells were lysed in RLTplus (Qiagen) and RNA was extracted from the purified cells using an AllPrepkit (Qiagen). Gene expression was measured using 100 ng of RNA in the Pan-Cancer Immune Profiling kit (NanoString) according to the manufacturer's instructions.

For series [5], the system named is CD79b-mutant DLBCL and ibrutinib-resistant DLBCL cell lines. The series can be described thus: Growth of DLBCL cell lines in vitro. In kind it is cell-based. Particulars: ibrutinib-resistant with BTK C481S or CARD11 mutations.
Another series in a line: Oral bioavailability. Particulars: in vivo.
Series [6] deals with NF-κB (p105/p50) nuclear translocation in CD4 and CD8 positive T cells. As to the kind of experiment: NF-kB nuclear translocation in T cells from NHL peripheral whole blood. In kind it is cell-based, human. How it is done: (§1) The solution was mixed by pipetting with a 1 mL pipette. The plates were incubated in a humidified incubator at 37° C. with 5% CO2 for an additional 6 hours.
The staining solution was prepared by diluting Hoechst 33342 (Thermo Scientific, cat. #62249) to 10 nM and the p50 antibody (Clone 2J10D7; Novus, cat. #NB100-56583C) at 50 μg/mL in FACS buffer. The cells were incubated in the staining solution for 30 minutes at room temperature in the dark. The cells were washed by centrifugation at 1350 rpm for 5 minutes at room temperature, the supernatants were discarded, and the pellets were reconstituted in FACS buffer. The wash step was repeated twice, and the cells were resuspended in PBS at a final concentration of 5-20×10^6 cell/mL in 25 μL of PBS.
The samples were imaged on an AMNIS® […]® X Mark II imaging flow cytometer (MilliporeSigma, Burlington, Mass.) immediately, using 60× magnification, and the data was analyzed in IDEAS software using an internalization module, e.g., to evaluate frequency of CD4+ and CD8+ T cells or CLL cells with nuclear enrichment of p50.
The next day, the mixture samples were treated with anti-CD3 and anti-CD28 stimulatory antibodies following a procedure as that described in Example 1. […] Samples were analyzed on ImageStreamX to evaluate NF-κB nuclear localization in the CD4 and the CD8 positive T cells.

For series [7], the system named is proteases, caspases, protein kinases, and G-protein-coupled receptors. As to the kind of experiment: Binding inhibition panel at single dose. Also noted: dose or concentration left out as unconfirmed.
For series [8], the system named is peripheral blood of NHL patients. As to the kind of experiment: Gene expression in whole blood of NHL patients (NanoString Pan-Cancer Immune Profiling). The conditions noted are these: 200 μM 24 hours, anti-CD3 and anti-CD28 four hours. In kind it is cell-based, human. The protocol:
(§2) Peripheral blood was collected from three NHL and two CLL patients. […] Prior to stimulation and following stimulation, the treated blood was transferred into a PAXgene tube (Qiagen; Hilden, Germany) and RNA was extracted using the PAXgene RNA kit. Gene expression was measured using 100 ng of RNA extracted from the whole blood in the Pan-Cancer Immune Profiling kit (NanoString; Seattle, Wash.) according to the manufacturer's instructions.

Series [9] concerns CD79b and CARD11-mutant ABC-DLBCL xenograft models. As to the kind of experiment: ABC-DLBCL xenograft models in vivo.
The subject of the next series is CD4+ and CD8+ T cells. As to the kind of experiment: CD69 expression on T cells from peripheral whole blood, imaging flow cytometry. The format is cell-based, human. Particulars: 200 μM overnight, anti-CD3 and anti-CD28 6 hours. The protocol:
as §1
The next day, blood was treated with anti-CD3 and anti-CD28 stimulatory antibodies for 6 hours as described in Example 1 or left untreated. After treatment with the stimulatory antibodies, the red blood cells were lysed using multi-species lysis buffer, and the white blood cells were stained with anti-CD4 and anti-CD8 antibodies to label T cells and an anti-CD69 antibody to measure early T cell activation. Frequency of CD69-positive T cells (CD4+ and CD8+) was measured by IFC.
(A flow cytometer gives signals particle by particle.)

The subject of series [10] is whole blood of NHL patients. As to the kind of experiment: Gene expression signatures in NHL whole blood treated with lymphocyte-stimulating agents. The format is cell-based, human. The conditions noted are these: PMA-stimulated samples, 100 μM. How it is done:
To obtain a robust gene signature of MALT1 inhibitor activity, whole blood of nine NHL patients which was stimulated with CD3/CD28, PMA/ionomycin, or PBS as a control was tested. Briefly, NHL donor blood was collected in 10 mL sodium heparin tubes and transported in refrigerated state (cold packs). […] Then, aliquots were stimulated with CD3 and CD28 antibodies (1 ug/ml each), PMA (20 ng/ml) and Ionomycin (1 μg/mL), or unstimulated (PBS) for four hours. Following stimulation, the treated blood was transferred into a PAXgene tube (Qiagen; Hilden, Germany) and RNA was extracted using the PAXgene RNA kit.
Gene expression was measured using 100 ng of RNA extracted from the whole blood in the Pan-Cancer Immune Profiling kit (NanoString; Seattle, Wash.) according to the manufacturer's instructions. Gene expression was normalized across samples using NanoString nSolver software. […] Briefly, log 2-scaled, normalized NanoString counts were fit to a linear model (which incorporated the patient of origin) and moderated t-statistics, along with the associated Benjamini-Hochberg (BH) corrected p-values, were computed by empirical Bayes moderation of the standard errors towards a common value.

Series [11] deals with NF-kB nuclear localization in B (CLL) cells. As to the kind of experiment: NF-κB nuclear translocation in CLL B cells, overnight incubation, 6 h anti-IgM. In kind it is cell-based, human. Particulars: CLL PBMC; overnight compound; anti-IgM 6 hours. How it is done: Cells were then treated with anti-IgM or left untreated for 6 hours. After stimulation, PBMC were fixed using CytoFix buffer and permeabilized using 0.1% Triton X-100 solution. Cells were then stained with anti-CD19 to label B (CLL) cells, anti-CD4 and anti-CD8 to label T cells, Hoechst 33342 to label nuclei, and anti-p105/p50 to label NF-kB subunit. Samples were analyzed on ImageStreamX to evaluate NF-kB nuclear localization in B cells or T cells. […] Statistical significance was determined using Student's t-test in Microsoft Excel.

Series [12] relates to purified T-cells and PBMCs from NHL patients. As to the kind of experiment: Gene expression in T-cells and PBMCs purified from NHL blood without stimulation. The format is cell-based, human. Particulars: no stimulation, 24 hours. The protocol: Peripheral blood was collected from five NHL patients, and the peripheral blood was allowed to stand overnight. Then, the peripheral blood was treated for 24 hours with a MALT inhibitor or DMSO control. PBMCs were purified from the unstimulated blood using a ficoll density gradient and T-cells were purified using CD3 Beads (Miltenyi) using the manufacturers protocol. Purified cells were lysed in RLTplus (Qiagen) and RNA was extracted from the purified cells using an AllPrep kit (Qiagen). Gene expression was measured using 100 ng of RNA in the Pan-Cancer Immune Profiling kit (NanoString) according to the manufacturer's instructions. Gene expression signatures were compared between the MALT inhibitor treated and DMSO treated samples.

In series [13] the test system is peripheral blood of CLL patients. The series can be described thus: Gene expression in whole blood of CLL patients (NanoString Pan-Cancer Immune Profiling). The format is cell-based, human. The conditions noted are these: 200 μM 24 hours, anti-CD3 and anti-CD28 four hours. The protocol: as §2

For orientation: IC50 means the concentration that inhibits the measured activity by half.

As to `COCCOc1nc(-c2ccc(Cl)c(Cl)c2)n(-c2ccc(NC(=O)CCl)cc2)n1` [MI-2], the “expression of six known NF-κB target genes” value in [1] is listed as “significantly reduce”. Also, in series [2], the “nuclear translocation of NF-κB proteins” value is recorded as “suppress”.

Consider `O=C(Nc1ccnc(C(F)(F)F)c1)c1cnn(-c2cccc3c(=O)[nH]ccc23)c1C(F)(F)F` [Compound A, 1-(1-oxo-1,2 dihydroisoquinolin-5-yl)-5 (trifluoromethyl)-N-[2 (trifluoromethyl)pyridin-4 yl]-1H-pyrazole-4 carboxamide], for which the “NF-κB nuclear translocation in activated B cells” value in [3] is recorded as “inhibited”. Further, in [4], the “stimulation induced upregulation of IL2” value is “repressed”. For the same compound, in series [5], the “growth of DLBCL cell lines” value is given as “inhibit growth”. The oral bioavailability result in the series “Oral bioavailability” is recorded as “orally bioavailable”. In addition, the “NFκB nuclear translocation in T cells” value in series [6] (CD3/CD28 stimulation, dosage dependent) is given as “completely blocked”. For the same compound, the IC50 in series [6] (Homo sapiens, CD8 positive, overnight, CD3/CD28 stimulation 6 h, read-out: IC50, NFκB nuclear translocation in T cells) was about 9.5 µM. Besides, the “binding inhibition of proteases, caspases, protein kinases, and G-protein-coupled receptors” value in [7] is recorded as “did not show significant binding inhibition”. Further, the “stimulation induced upregulation of CXCL10” value in [8] is reported as “repressed”. The “efficacy in xenograft models” value in series [9] is reported as “shown efficacy”. Besides, in the series on CD4+ and CD8+ T cells (NHL blood), the “surface expression of CD69 on T cells” value was “significantly inhibited”. In addition, the “surface expression of CD69 on CD4+ and CD8+ T cells” value in the series with CD4+ and CD8+ T cells (normal blood) is on record as “not affected”. For the same compound, the genes significantly upregulated entry in series [10] was “no genes were significantly upregulated”. In series [10] (genes ICOS, POU2F2, CCR4, CTLA4), the “gene expression at the specified cutoff levels” value is on record as “downregulated”. In addition, in series [11], the “NF-κB nuclear translocation in B cells” value was “inhibited”. For the same compound, in series [12] (purified PBMCs), the APOE expression result is given as “repressed” and the PYCARD expression result was “repressed”. For the same compound, in series [12] (purified T-cells), the NF-κB2 expression entry is given as “repressed” and the TNFSF10 expression result is “repressed”. Besides, the “stimulation induced upregulation of CXCL10” value in series [13] is reported as “repressed”.

(Values after patent publication US20210156865A1, “METHODS FOR ASSESSING EFFICACY OF MALT1 INHIBITORS USING AN NF-KB TRANSLOCATION ASSAY” (Janssen Pharmaceutica NV, priority 2019, published 2021).)
